Results taken from ChEMBL document CHEMBL1142905, “1,4-Bis(alkylamino)benzo[g]phthalazines able to form dinuclear complexes of Cu(II) which as free ligands behave as SOD inhibitors and show efficient in vitro activity against Trypanosoma cruzi” (Bioorg Med Chem, 2007).
≈ marks a conversion by molar mass, not a printed value.

Columns and labels:
[1] = Toxicity against Vero cells after 72 hrs; format: cell-based; conditions: Chlorocebus sabaeus (African green monkey)
Trypanosoma cruzi [2] = experiment: Inhibition of Trypanosoma cruzi Maracay epimastigotes after 72 hrs; format: functional, organism-based
Trypanosoma cruzi [3] = experiment: Inhibition of Trypanosoma cruzi Maracay epimastigotes after 48 hrs; format: functional, organism-based
Homo sapiens [4] = species on record: Homo sapiens; experiment: Inhibition of Cu-Zn SOD in human erythrocytes at 1 ug/mL; format: cell-based
Trypanosoma cruzi [5] = experiment: Inhibition of Fe-SOD in Trypanosoma cruzi Maracay at 1 ug/mL
Homo sapiens [6] = species on record: Homo sapiens; experiment: Inhibition of Cu-Zn SOD in human erythrocytes at 10 ug/mL; format: cell-based
Trypanosoma cruzi [7] = experiment: Inhibition of Fe-SOD in Trypanosoma cruzi Maracay at 25 ug/mL
Homo sapiens [8] = species on record: Homo sapiens; experiment: Inhibition of Cu-Zn SOD in human erythrocytes at 25 ug/mL; format: cell-based
Trypanosoma cruzi [9] = experiment: Inhibition of Trypanosoma cruzi Maracay epimastigotes after 24 hrs; format: functional, organism-based
Trypanosoma cruzi [10] = experiment: Inhibition of Fe-SOD in Trypanosoma cruzi Maracay at 10 ug/mL
Trypanosoma cruzi [11] = experiment: Inhibition of rate of infection with Trypanosoma cruzi Maracay metacyclic form in Vero cells at 5 ug/mL after 8 days; format: functional; conditions: 192 h
Trypanosoma cruzi [12] = experiment: Reduction of Trypanosoma cruzi Maracay trypomastigote infection in Vero cells; format: functional; parameters: scale not given: the % may be the effect or the level left
Trypanosoma cruzi [13] = experiment: Reduction of Trypanosoma cruzi Maracay amastigotes infection in Vero cells at 5 ug/Ml after 8 days relative to control; format: functional; parameters: scale not given: the % may be the effect or the level left
Trypanosoma cruzi [14] = experiment: Inhibition of rate of infection with Trypanosoma cruzi Maracay metacyclic form in Vero cells at 5 ug/mL after 2 days; format: functional; parameters: scale not given: the % may be the effect or the level left

IC50 (Trypanosoma cruzi [2]) [µg/mL]	IC50 (Trypanosoma cruzi [3]) [µg/mL]	inhibition (Trypanosoma cruzi [5]) [%]	inhibition (Trypanosoma cruzi [7]) [%]	IC50 (Trypanosoma cruzi [9]) [µg/mL]	inhibition (Trypanosoma cruzi [10]) [%]	Compound	IC50 at 72 h [1] [µg/mL]	inhibition (Homo sapiens [4]) [%]	inhibition (Homo sapiens [6]) [%]	inhibition (Homo sapiens [8]) [%]	inhibition at 5 µg/mL (Trypanosoma cruzi [11]) [%]	Activity (Trypanosoma cruzi [12]) [%]	Activity (Trypanosoma cruzi [13]) [%]	Activity (Trypanosoma cruzi [14]) [%]
						O=C(Cn1ccnc1[N+](=O)[O-])NCc1ccccc1 [BENZNIDAZOLE]	3.53 (≈ 13.6 µM)							
30.6 (≈ 79.2 µM)	62.6 (≈ 162 µM)	27	53	75.4 (≈ 195 µM)	34	OCCOCCNc1nnc(NCCOCCO)c2cc3ccccc3cc12	93.5 (≈ 242 µM)	0	0	0				
12 (≈ 31.3 µM)	15.6 (≈ 40.6 µM)	48	100		73	NCCOCCNc1nnc(NCCOCCN)c2cc3ccccc3cc12	67.3 (≈ 175 µM)	0	11	17	57	65	43	
3.25 (≈ 6.39 µM)	12.8 (≈ 25.3 µM)	64	75	56.8 (≈ 112 µM)	68	c1ccc(COCCCNc2nnc(NCCCOCc3ccccn3)c3cc4ccccc4cc23)nc1	6.25 (≈ 12.3 µM)	0	7	11	68	74	44	35
